Reference: patent US9522377B2, “Method for improving the properties of amphiphile particles” (CAMURUS AB, priority 2003, dated 2016)

How the values were obtained:
[1] = for influence of drug on properties of the dispersions: 0.3% drug, GMOrphic/12% P407, non-autoclaved and autoclaved; for effect on lattice constant of cubic phase, autoclaved dispersions / effect on particle size of autoclaved dispersions: autoclaved 121° C., 15+5 min; for influence on non-autoclaved dispersions: chloramphenicol 0.3, 1 and 2%, miconazole 0.3 and 1%
Description: All drug concentrations are indicated relative to the sum of monoglyceride and poloxamer. A drug-free dispersion was prepared and investigated as a reference.
All dispersions were autoclaved at 121° C. for 15+5 min. (allowing for temperature equilibration in the autoclave) and their properties were compared to that of the corresponding non-autoclaved dispersions.

[2] = Active agent loading of cubic particles; assay type: physicochemical
Description: To the dispersions is added the cationic peptide desmopressin to a concentration of 1 mg/ml. The dispersion is allowed to equilibrate for 60 minutes at room temperature and reanalyzed for particle size and optionally phase behaviour. The particle size is not affected as determined using laser diffraction.
A dispersion of cubic particles of formulation GMO/OA/F-127 (84.5:4.5:10) was prepared as in Example 24. The steroid hormone progesterone was incubated with the cubic particles at room temperature as described for desmopressin in Example 22. The equilibrium loading level was 3% by weight.
The above method was repeated by the active agent progesterone was included in the aqueous phase prior to the homogenisation and heat treatment steps. The loading level was again examined and established to be 18 wt %. The effect upon the particle size distribution was minimal.

effect on lattice constant of cubic phase, autoclaved dispersions [1] | Compound | influence of drug on properties of the dispersions [1] | effect on particle size of autoclaved dispersions [1] | influence on non-autoclaved dispersions [1] | further results
 | COC1=C(OC)C(=O)C(C/C=C(\C)CC/C=C(\C)CC/C=C(\C)CC/C=C(\C)CC/C=C(\C)CC/C=C(\C)CC/C=C(\C)CC/C=C(\C)CC/C=C(\C)CCC=C(C)C)=C(C)C1=O [Ubidecarenone, ubidecarenone] | did not influence the properties of the resulting dispersions |  |  | 
 | CCCCC(=O)O[C@]1(C(=O)CO)[C@@H](C)C[C@H]2[C@@H]3CCC4=CC(=O)C=C[C@]4(C)[C@@]3(F)[C@@H](O)C[C@@]21C [betamethasone-17-valerate] |  |  |  | influence of drug on general behaviour of the dispersions ([1]; 0.3, 1 or 2% drug): no influence on the general behaviour of the dispersions
slight increase in lattice constant | O=C(N[C@H](CO)[C@H](O)c1ccc([N+](=O)[O-])cc1)C(Cl)Cl [chloramphenicol] |  | particle sizes increased distinctly with drug concentration | no influence on the non-autoclaved dispersions | 
decreased slightly | Clc1ccc(COC(Cn2ccnc2)c2ccc(Cl)cc2Cl)c(Cl)c1 (centres unmarked) [miconazole] |  | slightly larger (0.3%) and distinctly larger (1%) particle sizes | no influence on the non-autoclaved dispersions | 
 | CC(=O)[C@H]1CC[C@H]2[C@@H]3CCC4=CC(=O)CC[C@]4(C)[C@H]3CC[C@]12C [progesterone] |  |  |  | loading level ([2]; included in aqueous phase prior to homogenisation and heat treatment, GMO/OA/F-127 (84.5:4.5:10)): 18 wt %; equilibrium loading level ([2]; incubated with GMO/OA/F-127 (84.5:4.5:10) cubic particles at room temperature): 3 % by weight
 | CC(=O)Oc1c(C)c(C)c2c(c1C)CCC(C)(CCC[C@H](C)CCC[C@H](C)CCCC(C)C)O2 (some centres unmarked) [tocopherol acetate] | did not influence the properties of the resulting dispersions |  |  | 
